We go through one compound from patent publication US20040228804A1, “Nasal administration of xylitol to a non-human mammal” (priority 2003, published 2004).

A short description of series [1]: saturated solution of xylitol (maximum strength). As to conditions: saline or water based solution. Format: physicochemical. An excerpt: (§1) Embodiments of the present invention are directed to treating cattle with xylitol in solution in order to reduce or prevent shipping fever, and/or ailments associated with close quartering of cattle. The solution may be a saline based solution for some embodiments, but the solution may also have just a water base. A maximum strength may be a saturated solution comprising approximately of 64 grams of xylitol per 100 cubic centimeters (cc's) of solution. The inventor has yet to determine a precise lower limit of xylitol that would be effective, but as little as 1% xylitol in solution has shown to be effective. It should be understood however, that a 1% xylitol in solution should not be construed as a lower limit of effectiveness; rather, this is only the lower limit of tested effectiveness. Smaller percentages of the xylitol in solution may likewise be effective, and thus their use would be within the scope and spirit of the invention.

Series [2] has as its system pathogenic bacteria. As to conditions: several pathogenic bacteria exposed to xylitol; cited from earlier work.
For series [3], the system named is shipping fever. The series is described as follows: treating cattle with xylitol in solution to reduce or prevent shipping fever. Format: in vivo. Conditions: 1% xylitol in solution; lower limit of tested effectiveness.
Description: as §1
The precise mode of application of the xylitol in solution may vary substantially. In at least some embodiments, nostrils of the cattle may be treated directly prior to close quartering, such as shipping. In particular, in these embodiments the xylitol in solution be applied to each nostril of each animal in the form of a mist (nebulized), which application preferably takes place for approximately two respiratory cycles of the animal for each nostril. […]

In the case of `OC[C@@H](O)[C@H](O)[C@@H](O)CO` [xylitol], the “saturated solution, xylitol per 100 cubic centimeters of solution” value in series [1] is ~64 grams per 100 cubic centimeter. Moreover, the “adherence of bacteria to their environment” value in series [2] is recorded as “less adherent”. Further, the “effectiveness of xylitol in solution” value in series [3] is reported as “effective”.
